Data as given in ChEMBL document CHEMBL5291721, “A preclinical secondary pharmacology resource illuminates target-adverse drug reaction associations of marketed drugs” (Nat Commun, 2023).

How the values were obtained:
[1] = biological target: Sodium-dependent dopamine transporter (Homo sapiens, UniProt Q01959)
D(1A) dopamine receptor = D(1A) dopamine receptor (Homo sapiens, UniProt P21728)
Prothrombin = Prothrombin (Homo sapiens, UniProt P00734); format: functional
Progesterone receptor = biological target: T1, Progesterone receptor (Homo sapiens, UniProt P06401)
T1 sequence (P06401 whole entry): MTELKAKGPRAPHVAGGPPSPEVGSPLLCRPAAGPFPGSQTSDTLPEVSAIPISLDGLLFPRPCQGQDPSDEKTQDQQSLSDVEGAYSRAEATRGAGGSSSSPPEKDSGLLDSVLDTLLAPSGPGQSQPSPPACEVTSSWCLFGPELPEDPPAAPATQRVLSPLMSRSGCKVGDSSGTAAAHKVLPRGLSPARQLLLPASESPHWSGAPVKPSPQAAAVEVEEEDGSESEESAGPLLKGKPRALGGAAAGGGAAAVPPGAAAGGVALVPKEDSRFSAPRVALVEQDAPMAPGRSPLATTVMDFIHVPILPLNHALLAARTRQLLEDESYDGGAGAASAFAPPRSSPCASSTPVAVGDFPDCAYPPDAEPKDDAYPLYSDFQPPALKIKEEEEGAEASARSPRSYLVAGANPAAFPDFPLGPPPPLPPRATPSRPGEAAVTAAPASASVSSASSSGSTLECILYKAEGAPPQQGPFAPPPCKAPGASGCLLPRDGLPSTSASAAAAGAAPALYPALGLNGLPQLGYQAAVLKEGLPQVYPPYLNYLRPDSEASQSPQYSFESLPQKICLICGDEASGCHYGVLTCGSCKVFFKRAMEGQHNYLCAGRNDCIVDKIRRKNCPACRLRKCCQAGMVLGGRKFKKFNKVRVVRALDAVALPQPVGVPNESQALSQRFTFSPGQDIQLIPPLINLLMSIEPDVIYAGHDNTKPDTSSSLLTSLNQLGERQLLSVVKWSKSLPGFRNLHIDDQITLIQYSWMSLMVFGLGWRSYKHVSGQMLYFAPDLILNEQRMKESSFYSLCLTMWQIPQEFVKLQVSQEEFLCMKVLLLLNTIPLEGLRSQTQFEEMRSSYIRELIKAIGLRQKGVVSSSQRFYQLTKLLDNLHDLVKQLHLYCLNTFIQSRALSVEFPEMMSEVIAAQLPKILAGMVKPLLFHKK

[2] = biological target: T2, Amine oxidase [flavin-containing] A (Homo sapiens, UniProt P21397); format: functional
T2 sequence (P21397 whole entry): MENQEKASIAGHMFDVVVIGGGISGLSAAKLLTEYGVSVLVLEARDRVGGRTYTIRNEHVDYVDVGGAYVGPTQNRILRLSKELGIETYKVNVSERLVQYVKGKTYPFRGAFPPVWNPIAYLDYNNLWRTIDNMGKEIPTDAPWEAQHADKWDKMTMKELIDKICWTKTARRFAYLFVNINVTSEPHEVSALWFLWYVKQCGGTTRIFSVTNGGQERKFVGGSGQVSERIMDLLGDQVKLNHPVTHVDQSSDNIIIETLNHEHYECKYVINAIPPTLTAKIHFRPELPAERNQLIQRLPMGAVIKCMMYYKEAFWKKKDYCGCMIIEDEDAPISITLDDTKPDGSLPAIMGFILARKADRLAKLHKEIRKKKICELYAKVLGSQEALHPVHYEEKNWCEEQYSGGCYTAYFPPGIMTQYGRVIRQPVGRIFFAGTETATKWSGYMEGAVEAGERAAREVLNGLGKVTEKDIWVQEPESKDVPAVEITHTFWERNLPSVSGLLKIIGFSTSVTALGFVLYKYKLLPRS

[3] = biological target: T3, Alpha-1A adrenergic receptor (Homo sapiens, UniProt P35348); format: functional, cell-based
T3 sequence (P35348 whole entry): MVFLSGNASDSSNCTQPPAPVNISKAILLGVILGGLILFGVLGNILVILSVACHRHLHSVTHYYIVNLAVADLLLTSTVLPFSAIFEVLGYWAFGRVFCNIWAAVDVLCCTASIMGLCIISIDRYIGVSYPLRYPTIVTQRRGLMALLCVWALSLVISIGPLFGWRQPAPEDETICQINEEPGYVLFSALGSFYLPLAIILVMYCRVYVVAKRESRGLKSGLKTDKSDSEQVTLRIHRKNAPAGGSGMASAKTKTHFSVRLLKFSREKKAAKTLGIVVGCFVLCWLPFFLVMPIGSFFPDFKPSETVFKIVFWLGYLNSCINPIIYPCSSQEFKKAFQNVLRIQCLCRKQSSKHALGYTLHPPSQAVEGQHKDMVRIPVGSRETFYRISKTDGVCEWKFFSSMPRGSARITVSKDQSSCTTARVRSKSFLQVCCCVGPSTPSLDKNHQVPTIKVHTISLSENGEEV

Estrogen receptor = biological target: T4, Estrogen receptor (Homo sapiens, UniProt P03372)
T4 sequence (P03372 whole entry): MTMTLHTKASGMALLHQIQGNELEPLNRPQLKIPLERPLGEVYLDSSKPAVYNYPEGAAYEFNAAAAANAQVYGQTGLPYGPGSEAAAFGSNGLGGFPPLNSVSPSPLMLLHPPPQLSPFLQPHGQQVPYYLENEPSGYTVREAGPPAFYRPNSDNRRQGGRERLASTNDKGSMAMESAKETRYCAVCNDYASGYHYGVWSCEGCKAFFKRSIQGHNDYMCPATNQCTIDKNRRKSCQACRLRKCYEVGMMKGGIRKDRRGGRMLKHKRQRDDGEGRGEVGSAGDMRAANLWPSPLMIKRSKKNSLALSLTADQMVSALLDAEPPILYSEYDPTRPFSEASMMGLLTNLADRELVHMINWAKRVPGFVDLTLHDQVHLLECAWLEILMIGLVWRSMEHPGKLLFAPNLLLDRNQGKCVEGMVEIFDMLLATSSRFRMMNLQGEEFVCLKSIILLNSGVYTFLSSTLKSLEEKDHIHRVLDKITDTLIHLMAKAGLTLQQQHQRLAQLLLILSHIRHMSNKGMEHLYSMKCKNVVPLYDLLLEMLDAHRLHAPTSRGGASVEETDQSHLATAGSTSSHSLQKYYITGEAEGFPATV
Also: assay procedure not described here.

Chain of Sodium-dependent dopamine transporter (Q01959 whole entry): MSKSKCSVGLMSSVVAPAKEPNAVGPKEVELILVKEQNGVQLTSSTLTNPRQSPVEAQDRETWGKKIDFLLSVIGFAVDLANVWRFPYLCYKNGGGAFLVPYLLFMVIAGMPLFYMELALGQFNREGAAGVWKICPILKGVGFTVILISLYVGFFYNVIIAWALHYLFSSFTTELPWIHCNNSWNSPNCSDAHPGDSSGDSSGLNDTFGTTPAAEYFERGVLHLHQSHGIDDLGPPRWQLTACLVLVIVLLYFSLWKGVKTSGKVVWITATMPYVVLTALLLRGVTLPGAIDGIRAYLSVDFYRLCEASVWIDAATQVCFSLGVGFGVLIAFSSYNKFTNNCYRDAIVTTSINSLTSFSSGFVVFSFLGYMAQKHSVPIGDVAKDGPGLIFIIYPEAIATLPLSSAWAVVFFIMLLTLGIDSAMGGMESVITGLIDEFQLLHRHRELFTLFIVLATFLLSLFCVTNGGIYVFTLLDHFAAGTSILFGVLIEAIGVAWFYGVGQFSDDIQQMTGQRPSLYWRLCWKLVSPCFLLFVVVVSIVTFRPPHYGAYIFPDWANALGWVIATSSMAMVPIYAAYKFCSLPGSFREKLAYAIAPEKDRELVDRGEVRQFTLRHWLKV
Chain of D(1A) dopamine receptor (P21728 whole entry): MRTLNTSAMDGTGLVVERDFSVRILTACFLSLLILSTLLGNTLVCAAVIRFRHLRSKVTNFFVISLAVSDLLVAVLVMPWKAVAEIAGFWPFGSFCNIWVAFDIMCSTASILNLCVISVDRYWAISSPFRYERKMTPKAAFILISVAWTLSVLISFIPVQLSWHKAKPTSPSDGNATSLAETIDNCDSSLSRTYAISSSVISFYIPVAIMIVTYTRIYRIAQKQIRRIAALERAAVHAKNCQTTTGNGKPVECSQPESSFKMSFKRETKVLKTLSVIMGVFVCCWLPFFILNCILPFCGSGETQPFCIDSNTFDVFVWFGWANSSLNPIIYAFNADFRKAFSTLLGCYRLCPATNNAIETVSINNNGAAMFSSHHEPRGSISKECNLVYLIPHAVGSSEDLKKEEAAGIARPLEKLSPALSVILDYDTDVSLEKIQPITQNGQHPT

| Compound | AC50 [1] [µM] | AC50 (D(1A) dopamine receptor) [µM] | AC50 (Prothrombin) [µM] | AC50 (Progesterone receptor) [µM] | AC50 [2] [µM] | AC50 [3] [µM] | AC50 (Estrogen receptor) [µM] |
| --- | --- | --- | --- | --- | --- | --- | --- |
| CCN1CCCC1CNC(=O)c1cc(S(N)(=O)=O)ccc1OC (stereo unspecified) [SULPIRIDE] | > 30 | 16.5 | > 30 | > 30 | > 30 | > 30 |  |
| CC(=O)Oc1ccc2c(c1)CC[C@@H]1[C@@H]2CC[C@]2(C)[C@@H](O)CC[C@@H]12 [ESTRADIOL ACETATE] | 8.09 | > 30 | > 30 | 0.209 | > 30 | > 30 |  |
| Nc1ccncc1N [AMIFAMPRIDINE] | > 30 | > 30 | > 30 | > 30 | > 30 | > 30 |  |
| O=C(O)c1ccccc1C(=O)Nc1ccc(S(=O)(=O)Nc2nccs2)cc1 [PHTHALYLSULFATHIAZOLE] | > 30 | > 30 | > 30 | > 30 | > 30 | > 30 |  |
| COc1ccccc1N1CCN(CC(O)COc2cccc3ccccc23)CC1 (stereo unspecified) [NAFTOPIDIL] | 4.46 | 2.08 | > 30 | > 30 | > 30 |  |  |
| COc1cc2nc(N3CCN(C(=O)c4ccco4)CC3)nc(N)c2cc1OC [PRAZOSIN] | 30 | 8.64 | > 10 | > 30 | > 30 |  | > 30 |
| Nc1ccc2cc3ccc(N)cc3nc2c1 [PROFLAVINE] | 5.16 | 10.6 | 9.65 | > 30 | 0.786 | > 0.3 |  |
| COc1cc([C@@H]2c3cc4c(cc3[C@H](O)[C@H]3COC(=O)[C@H]23)OCO4)cc(OC)c1OC [PODOFILOX] | > 30 | > 30 | > 30 | > 30 | > 30 | > 30 |  |
| CCOC(=O)[C@H](CCc1ccccc1)N[C@@H](C)C(=O)N1CC2(C[C@H]1C(=O)O)SCCS2 | > 30 | > 30 | > 30 | > 30 | > 30 | > 30 |  |
| O=c1[nH]c(=O)n(C2CCCO2)cc1F (stereo unspecified) [TEGAFUR] | > 30 | > 30 | > 30 | > 30 | > 30 | > 30 |  |
| NC(=O)C[C@H](N)C(=O)O [ASPARAGINE] | > 30 | > 30 | > 30 | > 30 | > 30 | > 30 |  |
| CCCC1O[C@@H]2C[C@H]3[C@@H]4CCC5=CC(=O)C=C[C@]5(C)[C@H]4[C@@H](O)C[C@]3(C)[C@]2(C(=O)CO)O1 (stereo partly specified) [BUDESONIDE] | > 30 | > 30 | > 30 |  | > 30 | > 30 |  |
| CCCCCNC(=N)N/N=C/c1c[nH]c2ccc(OC)cc12 [TEGASEROD] | 1.85 | 0.73 | > 30 | > 30 | 23.6 | > 3 |  |
